Common to all, as to experiment: NCI-60 cell line screen, 48 h
Experiment [1] deals with CCRF-CEM leukemia.
In experiment [2] the test system is COLO 205 colon.
The test system of experiment [3] is HCT-116 colon.
Experiment [4] has as its system KM12 colon.
The subject of experiment [5] is M14 melanoma.
Experiment [6] concerns MALME-3M melanoma.
In experiment [7] the test system is OVCAR-8 ovarian.
Experiment [8] deals with RXF 393 renal.
The test system of experiment [9] is SNB-19 CNS.
For experiment [10], the system named is UACC-257 melanoma.

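Tested at 5 concentrations; 48 h exposure; 96-well plates; endpoints linearly interpolated, else capped at highest concentration. The concentration for 50% growth inhibition is given as GI50. TGI marks complete inhibition of growth.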

For the molecule `CC(=O)[CH-]C(=O)c1ccccc1.CC(=O)[CH-]C(=O)c1ccccc1.CC[O-].O=C1C=C([O-])C(=O)c2ccccc21.[Ti+4]`, the GI50 in [1] is 21 µM; in experiment [2] it was 26.9 µM; in experiment [3], 62.5 µM; in experiment [4], 32.2 µM; in [5], 18 µM; in experiment [6], 34.8 µM. Also, the GI50 in experiment [7] was > 100 µM; in experiment [8], > 100 µM; in experiment [9] it was > 100 µM; in experiment [10] it was 8.49 µM. In addition, the TGI in [1], in [2], in experiment [3], in experiment [4], in experiment [5] and in experiment [6] was > 100 µM each time. Also, the TGI was > 100 µM in [7], > 100 µM in experiment [8], > 100 µM in [9] and 86 µM in experiment [10].
With `NCCCn1c2c(c3ccc([N+](=O)[O-])cc3c1=O)C(=O)c1cc(Cl)ccc1-2`, the GI50 in experiment [1] is < 0.01 µM; in experiment [2] it was < 0.01 µM; in experiment [3], < 0.01 µM; in experiment [4], < 0.0283 µM; in [5] it was < 0.01 µM; in experiment [6], < 0.01 µM. Besides, the GI50 in [7] is < 0.01 µM; in [8], < 0.01 µM; in experiment [9], < 0.01 µM; in experiment [10], 0.0526 µM. For the same molecule, the TGI is 0.0104 µM in [1]; 0.313 µM in [2]; 0.0182 µM in experiment [3]; 0.174 µM in experiment [4]; 0.0318 µM in experiment [5]; 0.195 µM in experiment [6]. Moreover, the TGI was found to be 0.109 µM in experiment [7], 0.118 µM in experiment [8], 0.227 µM in [9] and 1.31 µM in [10].
On to `COc1cccc2cc(N(C)c3nc(C)nc4ccsc34)ccc12`, for which the GI50 in experiment [1] was < 0.01 µM; in experiment [2], < 0.01 µM; in experiment [3] it was < 0.01 µM; in [4] it was < 0.01 µM; in [5], < 0.01 µM; in [6], < 0.0116 µM. Moreover, the GI50 in [7] was < 0.01 µM; in experiment [8], < 0.01 µM; in experiment [9], < 0.01 µM; in experiment [10], 10.8 µM. Also, the TGI in [1] was > 100 µM; in experiment [3], 10.5 µM; in experiment [4], 11.4 µM; in [5], 12.6 µM; in experiment [6], 18 µM; in experiment [7] it was 38.5 µM. Moreover, the TGI in experiment [8] is 16.4 µM; in [9], 22.9 µM; in [10], 27 µM.
On to `CC(=O)NNc1nc(C)c(C(/C=C/c2ccc(Cl)cc2)=N/NC(=S)NN)s1`, for which the TGI in [1], in experiment [2], in [3], in experiment [4], in experiment [5] and in experiment [6] was > 100 µM in each case. In addition, the TGI in [7], in [8], in experiment [9] and in experiment [10] was > 100 µM throughout.
Consider `Clc1ccc2c(NCCN3CCN(c4ccnc(N5CCCC5)n4)CC3)ccnc2c1`, for which the GI50 in experiment [1] is 3.65 µM; in experiment [2], 1.63 µM; in [3] it was 2.51 µM; in experiment [4] it was 4.02 µM; in [5], 1.91 µM; in experiment [6] it was 1.91 µM. For the same molecule, the GI50 in experiment [7] is 4.39 µM; in experiment [8], 1.42 µM; in experiment [9], 7.06 µM; in [10], 2.29 µM. The TGI amounted to 32.3 µM in [1]; 3.59 µM in experiment [2]; 10.4 µM in [3]; 17.4 µM in experiment [4]; 3.61 µM in experiment [5]; 3.74 µM in [6]. The TGI was found to be 18.5 µM in experiment [7], 3.93 µM in experiment [8], 28.7 µM in [9] and 4.35 µM in [10].
Turning to `Cc1[nH]ccc2cc3nc4ccccc4c3cc12`, the GI50 in [1] was 1.5 µM; in [2] it was 2.35 µM; in [3], 0.667 µM; in [4] it was 2.45 µM; in experiment [5], 2.47 µM; in experiment [6] it was 2.27 µM. The GI50 is 1.72 µM in experiment [7], 1.74 µM in experiment [8], 5.65 µM in [9] and 3.35 µM in experiment [10]. The TGI in [1] is 10 µM; in experiment [2], 7.15 µM; in experiment [3], 2.38 µM; in [4] it was 11.8 µM; in [5] it was 11.1 µM; in experiment [6], 7.94 µM. Also, the TGI in [7] is 11.7 µM; in experiment [8], 3.91 µM; in experiment [9], 19.6 µM; in [10], 12.8 µM.
`c1cc(C2N3CCCN2CC3)ccn1` (centres undefined): the TGI in [1] is > 100 µM; in experiment [2], > 100 µM; in experiment [3], > 100 µM; in experiment [4], > 100 µM; in [5], > 100 µM; in experiment [6], 80.1 µM. The TGI in experiment [7], in experiment [8], in experiment [9] and in experiment [10] was > 100 µM in each case.
Regarding `COc1cc(CCC(=O)NS(=O)(=O)c2ccccc2)cc(OC)c1OC`, the TGI in experiment [1], in experiment [2], in [3], in experiment [4], in [5] and in experiment [6] was > 100 µM throughout. Further, the TGI in [7], in experiment [8], in experiment [9] and in experiment [10] was > 100 µM throughout.

For the origin of these results see PubChem BioAssay (NCI).
